Assays:
[1] = Example 5 peripheral drug exposures in blood and plasma; assay type: in vivo, cynomolgus macaques; details: oral once per day (Dex 0.5 mg/kg, Tac 1 mg/kg, Pred 3 mg/kg); day 21, 4 hours post-dosing
Source text: FIG. 9. Exemplary peripheral drug exposures in blood and plasma. […] The X axis of the graph denotes immunosuppression agent (dexamethasone, tacrolimus, or prednisolone); the Y axis of the graph depicts ng/ml of the immunosuppression agent as detected in blood for dexamethasone and prednisolone or in plasma for tacrolimus. Each circle represents data collected from one animal.

[2] = test system: cynomolgus macaques; experiment: Example 5 histopathological lesions in examined animals (Table 1); assay type: in vivo; details: rAAV 5×10^13 vg/kg IV + regimen, day 22 necropsy
Source text: FIGS. 10A-10C. […] Columns represent average value for each treatment group. […] Treatment group is denoted at left. […] Magnification is indicated at top. […] Treatment groups of animals are indicated at top.

[3] = test system: cynomolgus macaques; experiment: Example 5 liver enzymes and total bilirubin in blood (Table 2); details: rAAV 5×10^13 vg/kg IV plus regimen
Source text: Blood samples were collected from animals on days-7, 4, 8, 15, and 22 (wherein 0=day of rAAV administration) and subsequently analyzed for levels of certain liver enzymes and total bilirubin. […] (D) Level of total bilirubin (TBIL) was quantified. The X axis depicts day of study (wherein 0=day of rAAV administration); the Y axis depicts milligrams (mg) per deciliter (dL) of total bilirubin. Each graphed line corresponds to data collected from one animal. Legend at right identifies treatment group.
Reduction in liver toxicity upon treatment with rAAV by tested immunosuppression regimens was investigated through measurement of levels of liver enzymes and analysis of liver lesions at necropsy.

## C[C@@H]1C[C@H]2[C@@H]3CCC4=CC(=O)C=C[C@]4(C)[C@@]3(F)[C@@H](O)C[C@]2(C)[C@@]1(O)C(=O)CO [Dex, dexamethasone]
[1]
  peripheral drug exposure: achieved targeted ranges of peripheral drug exposure

## C[C@]12C=CC(=O)C=C1CC[C@@H]1[C@@H]2[C@@H](O)C[C@@]2(C)[C@H]1CC[C@]2(O)C(=O)CO [Pred, prednisolone]
[2]; 3 examined per group
  Dorsal root ganglia, cervical: Infiltrate, mononuclear cell (animals affected, total): (0)
  Dorsal root ganglia, cervical: Infiltrate, mononuclear cell, Minimal (animals): 0
  Dorsal root ganglia, lumbar: Degeneration/necrosis, neuron (animals affected, total): (3)
  Dorsal root ganglia, lumbar: Degeneration/necrosis, neuron, Minimal (animals): 3
  Dorsal root ganglia, lumbar: Infiltrate, mononuclear cell (animals affected, total): (3)
  Dorsal root ganglia, lumbar: Infiltrate, mononuclear cell, Minimal (animals): 3
  Dorsal root ganglia, sacral: Degeneration/necrosis, neuron (animals affected, total): (1)
  Dorsal root ganglia, sacral: Degeneration/necrosis, neuron, Minimal (animals): 1
  Dorsal root ganglia, sacral: Infiltrate, mononuclear cell (animals affected, total): (1)
  Dorsal root ganglia, sacral: Infiltrate, mononuclear cell, Mild (animals): 1
  Dorsal root ganglia, sacral: Infiltrate, mononuclear cell, Minimal (animals): 0
  Dorsal root ganglia, thoracic: Degeneration/necrosis, neuron (animals affected, total): (1)
  Dorsal root ganglia, thoracic: Degeneration/necrosis, neuron, Minimal (animals): 1
  Dorsal root ganglia, thoracic: Infiltrate, mononuclear cell (animals affected, total): (2)
  Dorsal root ganglia, thoracic: Infiltrate, mononuclear cell, Minimal (animals): 2
  Heart: Degeneration, myocardium (animals affected, total): (1)
  Heart: Degeneration, myocardium, Minimal (animals): 1
  Heart: Infiltrate, mononuclear cell, adipose (animals affected, total): (3)
  Heart: Infiltrate, mononuclear cell, adipose, Minimal (animals): 3
  Heart: Infiltrate, mononuclear cell, myocardium (animals affected, total): (2)
  Heart: Infiltrate, mononuclear cell, myocardium, Mild (animals): 1
  Heart: Infiltrate, mononuclear cell, myocardium, Minimal (animals): 1
  Sciatic nerve: Degeneration, nerve fiber (animals affected, total): (1)
  Sciatic nerve: Degeneration, nerve fiber, Minimal (animals): 1
  Trigeminal ganglion: Degeneration/necrosis, neuron (animals affected, total): (2)
  Trigeminal ganglion: Degeneration/necrosis, neuron, Minimal (animals): 2
  Trigeminal ganglion: Infiltrate, mononuclear cell (animals affected, total): (2)
  Trigeminal ganglion: Infiltrate, mononuclear cell, Minimal (animals): 2
[2]; examined: Dex/Tac 1, Pred 3
  Sympathetic ganglia, thoracic: Infiltrate, mononuclear cell (animals affected, total): (2)
  Sympathetic ganglia, thoracic: Infiltrate, mononuclear cell, Minimal (animals): 2
[2]; examined: Dex/Tac 3, Pred 2
  Sympathetic ganglia, cervical: Infiltrate, mononuclear cell (animals affected, total): (1)
  Sympathetic ganglia, cervical: Infiltrate, mononuclear cell, Minimal (animals): 1
[1]
  peripheral drug exposure: achieved targeted ranges of peripheral drug exposure
[3]
  total bilirubin levels: notable increases

## C=CC[C@@H]1/C=C(\C)C[C@H](C)C[C@H](OC)[C@H]2O[C@@](O)(C(=O)C(=O)N3CCCC[C@H]3C(=O)O[C@H](/C(C)=C/[C@@H]3CC[C@@H](O)[C@H](OC)C3)[C@H](C)[C@@H](O)CC1=O)[C@H](C)C[C@@H]2OC [Tac, tacrolimus]
[1]
  peripheral drug exposure: achieved targeted ranges of peripheral drug exposure

From patent US20260284078A1, “IMMUNOS[…] AND METHODS THEREOF” (priority 2023, published 2026)
